Test results taken from patent publication US5925549A, “Soluble 7-transmembrane domain G-protein-coupled receptor compositions and methods” (The Board of Trustees of the Leland Stanford Junior …, priority 1997, dated 1999).

Tests used:
rat testis cells = experiment: Testis cell apoptosis, DNA fragmentation by 3' end-labeling and in situ analysis (Apotag kit); assay type: in vivo; conditions: immature male rats; GnRH antagonist 50 μg/rat; 2 days; FIG. 5C; comparable to FBP-treated group
Protocol: (§1) Two days after the initial injection, the testis were weighed and testis cell apoptosis was quantitated using a 3' end-labeling method (Tapanainen,et al., 1993). The effects of FBP were also assayed using in situ analysis of specific cell types undergoing apoptosis with the "APOTAG" kit (Oncor, Gaithersburg, Md.) as previously described (Billig, et al., 1995).
(§2) Some animals were treated with a potent gonadotropin releasing hormone (GnRH) antagonist (Org30850: Acetyl-D-parachloro-Phe (AcDpCl-Phe), D-parachloro-Phe (DpCl-Phe), D-Bal, DLys, DAla-amide; (AcDpCl)Phe1 - (DpCl)Phe2 - D-Bal3 - DLys6 -DAla10(amide) (SEQ ID NO:5; D refers to D (not L) amino acids); 50 μg/rat, FIG. 5C (ANT); Decker, et al., 1992) to suppress pituitary release of LH and FSH (Decker, et al., 1992) whereas others were treated with conditioned media of SF9 cells infected with wild type baculovirus. In situ analysis of specific cell types undergoing apoptosis was performed using Apotag kit (Oncor, Gaithersburg, MD) as previously described (Billig, et al., 1995). Animal care was in accordance with institutional guidelines.

[1] = test system: immature male rats (testis growth); experiment: Testis weight in immature male rats after 2 days of treatment; assay type: in vivo; conditions: 21 days of age, GnRH antagonist 50 μg/rat, testes weighed two days after initial injection, untreated 192±28 mg
Protocol: Immature male rats (21 days of age, weighing between about 45 and 50 g) were injected subcutaneously (s.c.) every 6h for a period of 2 days with 1 ml conditioned media of SF9 cells (10^8 cells equivalent/injection) containing solubilized FSH receptor fragments prepared as described above. The concentration of soluble receptor protein in the injection volume was between about 30 and 100 μg/ml. The effective dose administered every 6 hours was therefore between […].
as §1
as §2, with “In situ analysis of specific cell types undergoing apoptosis was performed using Apotag kit (Oncor, Gaithersburg, MD) as previously described (Billig, et al., 1995). Animal care was in accordance with institutional guidelines.” left out

## Acetyl-D-parachloro-Phe (AcDpCl-Phe), D-parachloro-Phe (DpCl-Phe), D-Bal, DLys, DAla-amide; (AcDpCl)Phe1 - (DpCl)Phe2 - D-Bal3 - DLys6 -DAla10(amide) [ANT]
Rat testis cells
  apoptotic DNA fragmentation in testis cells: increases in apoptotic DNA fragmentation
[1]
  testis weight: 140 ± 18 mg
